Measured values as given in ChEMBL document CHEMBL6114988, “Design, synthesis and biological evaluation of dual CDK9/PARP inhibitors for the treatment of cancer” (Eur J Med Chem, 2025).
Each block holds one compound with its values, some of them ahead of it.

What was measured:
HCT-116 = assay: cells; conditions: Homo sapiens, HCT-116, 48 h
Description: Antiproliferative activity against human HCT-116 cells assessed as inhibition of cell proliferation incubated for 48 hrs by CCK-8 assay

[1] = biological target: Poly [ADP-ribose] polymerase 1 (Homo sapiens, UniProt P09874); assay: Inhibition of PARP1 (unknown origin) incubated for 1 hr by ELISA
[2] = biological target: Cyclin-dependent kinase 9 (Homo sapiens, UniProt P50750)
Description: Inhibition of CDK9 (unknown origin) using lipid substrate incubated for 40 mins in presence of ATP by kinase-Glo plus luminescence assay

MCF7 = assay: cells; conditions: Homo sapiens, MCF7, 48 h
Description: Antiproliferative activity against human MCF7 cells assessed as inhibition of cell proliferation incubated for 48 hrs by CCK-8 assay

HeLa = assay: cells; conditions: Homo sapiens, 48 h
Description: Antiproliferative activity against human HeLa cells assessed as inhibition of cell proliferation incubated for 48 hrs by CCK-8 assay

[3] = biological target: CDK9/cyclin T1 (Homo sapiens) (UniProt O60563+P50750); conditions: dose 200.0 nM, time 70.0 min
MOLM-13 = assay: Antiproliferative activity against human MOLM-13 cells assessed as inhibition of cell proliferation incubated for 48 hrs by CCK-8 assay; type: functional, cell-based; conditions: MOLM-13, 48 h
MV4-11 = assay: Antiproliferative activity against human MV4-11 cells assessed as inhibition of cell proliferation incubated for 48 hrs by CCK-8 assay; type: functional, cell-based; conditions: MV4-11, 48 h
MDA-MB-231 [4] = assay: cells; conditions: Homo sapiens, MDA-MB-231, 48 h
Description: Antiproliferative activity against human MDA-MB-231 cells assessed as inhibition of cell proliferation incubated for 48 hrs by CCK-8 assay

MDA-MB-231 [5] = assay: Induction of apoptosis in human MDA-MB-231 cells assessed as early apoptotic cell at 10 uM incubated for 24 hrs by Annexin V-FITC/PI staining based analysis (reference value: 0.96 %); type: functional
MDA-MB-231 [6] = assay: Induction of cell cycle arrest in human MDA-MB-231 cells assessed as accumulation of cells at S phase at 10 uM incubated for 24 hrs by PI staining based flow cytometric analysis (reference value: 29.2%); type: functional
MDA-MB-231 [7] = assay: Induction of apoptosis in human MDA-MB-231 cells assessed as early apoptotic cell at 1 uM incubated for 24 hrs by Annexin V-FITC/PI staining based analysis (reference value: 0.96 %); type: functional
MDA-MB-231 [8] = assay: Induction of cell cycle arrest in human MDA-MB-231 cells assessed as accumulation of cells at S phase at 1 uM incubated for 24 hrs by PI staining based flow cytometric analysis (reference value: 29.2%); type: functional
MDA-MB-231 [9] = assay: Induction of apoptosis in human MDA-MB-231 cells assessed as early apoptotic cell at 0.2 uM incubated for 24 hrs by Annexin V-FITC/PI staining based analysis (reference value: 0.96 %); type: functional
MDA-MB-231 [10] = assay: Induction of cell cycle arrest in human MDA-MB-231 cells assessed as accumulation of cells at G2/M phase at 1 uM incubated for 24 hrs by PI staining based flow cytometric analysis (reference value: 11.3%); type: functional
MDA-MB-231 [11] = assay: Induction of apoptosis in human MDA-MB-231 cells assessed as late apoptotic cell at 1 uM incubated for 24 hrs by Annexin V-FITC/PI staining based analysis (reference value: 2.61 %); type: functional
MDA-MB-231 [12] = assay: Induction of cell cycle arrest in human MDA-MB-231 cells assessed as accumulation of cells at G1 phase at 10 uM incubated for 24 hrs by PI staining based flow cytometric analysis (reference value: 58.1%); type: functional
MDA-MB-231 [13] = assay: Induction of apoptosis in human MDA-MB-231 cells assessed as viable cell at 1 uM incubated for 24 hrs by Annexin V-FITC/PI staining based analysis (reference value: 96.3 %); type: functional
[14] = Metabolic stability in rat liver microsomes assessed as half life at 1 mg/ml incubated for 60 min in presence of NADPH by HPLC analysis; type: ADME, Microsome
MDA-MB-231 [15] = assay: Induction of apoptosis in human MDA-MB-231 cells assessed as viable cell at 0.2 uM incubated for 24 hrs by Annexin V-FITC/PI staining based analysis (reference value: 96.3 %); type: functional
MDA-MB-231 [16] = assay: Induction of apoptosis in human MDA-MB-231 cells assessed as late apoptotic cell at 0.2 uM incubated for 24 hrs by Annexin V-FITC/PI staining based analysis (reference value: 2.61 %); type: functional
MDA-MB-231 [17] = assay: Induction of apoptosis in human MDA-MB-231 cells assessed as viable cell at 10 uM incubated for 24 hrs by Annexin V-FITC/PI staining based analysis (reference value: 96.3 %); type: functional
MDA-MB-231 [18] = assay: Induction of cell cycle arrest in human MDA-MB-231 cells assessed as accumulation of cells at S phase at 0.2 uM incubated for 24 hrs by PI staining based flow cytometric analysis (reference value: 29.2%); type: functional
MDA-MB-231 [19] = assay: Induction of cell cycle arrest in human MDA-MB-231 cells assessed as accumulation of cells at G1 phase at 1 uM incubated for 24 hrs by PI staining based flow cytometric analysis (reference value: 58.1%); type: functional
MDA-MB-231 [20] = assay: Induction of cell cycle arrest in human MDA-MB-231 cells assessed as accumulation of cells at G2/M phase at 0.2 uM incubated for 24 hrs by PI staining based flow cytometric analysis (reference value: 11.3%); type: functional
[21] = Metabolic stability in plasma assessed as parent compound remaining incubated for 3 hrs by HPLC analysis; type: ADME, cell-free; conditions: read-out: Stability
[22] = Metabolic stability in artificial gastric fluid assessed as parent compound remaining at 1 mg/ml incubated for 8 hrs by HPLC analysis; type: ADME; conditions: read-out: Stability
MDA-MB-231 [23] = assay: Induction of cell cycle arrest in human MDA-MB-231 cells assessed as accumulation of cells at G1 phase at 0.2 uM incubated for 24 hrs by PI staining based flow cytometric analysis (reference value: 58.1%); type: functional
MDA-MB-231 [24] = assay: Induction of cell cycle arrest in human MDA-MB-231 cells assessed as accumulation of cells at G2/M phase at 10 uM incubated for 24 hrs by PI staining based flow cytometric analysis (reference value: 11.3%); type: functional
[25] = Metabolic stability in artificial intestinal fluid assessed as parent compound remaining at 1 mg/ml incubated for 8 hrs by HPLC analysis; type: ADME; conditions: read-out: Stability
MDA-MB-231 [26] = assay: Induction of apoptosis in human MDA-MB-231 cells assessed as late apoptotic cell at 10 uM incubated for 24 hrs by Annexin V-FITC/PI staining based analysis (reference value: 2.61 %); type: functional
MDA-MB-231 [27] = assay: Induction of apoptosis in human MDA-MB-231 cells assessed as necrotic cell at 1 uM incubated for 24 hrs by Annexin V-FITC/PI staining based analysis (reference value: 0.10 %); type: functional
MDA-MB-231 [28] = assay: Induction of apoptosis in human MDA-MB-231 cells assessed as necrotic cell at 10 uM incubated for 24 hrs by Annexin V-FITC/PI staining based analysis (reference value: 0.10 %); type: functional
MDA-MB-231 [29] = assay: Induction of apoptosis in human MDA-MB-231 cells assessed as necrotic cell at 0.2 uM incubated for 24 hrs by Annexin V-FITC/PI staining based analysis (reference value: 0.10 %); type: functional

Cyclin-dependent kinase 9, sequence (P50750 whole entry): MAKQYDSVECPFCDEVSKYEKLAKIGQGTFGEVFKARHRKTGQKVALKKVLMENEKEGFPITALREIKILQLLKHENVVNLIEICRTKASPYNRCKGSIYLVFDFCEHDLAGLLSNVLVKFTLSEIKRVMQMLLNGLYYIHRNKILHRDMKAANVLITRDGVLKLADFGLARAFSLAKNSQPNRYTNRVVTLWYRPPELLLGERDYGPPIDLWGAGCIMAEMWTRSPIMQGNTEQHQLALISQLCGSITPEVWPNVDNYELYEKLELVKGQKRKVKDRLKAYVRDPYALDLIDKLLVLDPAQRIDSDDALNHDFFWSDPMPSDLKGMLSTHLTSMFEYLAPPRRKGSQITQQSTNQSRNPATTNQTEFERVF
Poly [ADP-ribose] polymerase 1, sequence (P09874 whole entry): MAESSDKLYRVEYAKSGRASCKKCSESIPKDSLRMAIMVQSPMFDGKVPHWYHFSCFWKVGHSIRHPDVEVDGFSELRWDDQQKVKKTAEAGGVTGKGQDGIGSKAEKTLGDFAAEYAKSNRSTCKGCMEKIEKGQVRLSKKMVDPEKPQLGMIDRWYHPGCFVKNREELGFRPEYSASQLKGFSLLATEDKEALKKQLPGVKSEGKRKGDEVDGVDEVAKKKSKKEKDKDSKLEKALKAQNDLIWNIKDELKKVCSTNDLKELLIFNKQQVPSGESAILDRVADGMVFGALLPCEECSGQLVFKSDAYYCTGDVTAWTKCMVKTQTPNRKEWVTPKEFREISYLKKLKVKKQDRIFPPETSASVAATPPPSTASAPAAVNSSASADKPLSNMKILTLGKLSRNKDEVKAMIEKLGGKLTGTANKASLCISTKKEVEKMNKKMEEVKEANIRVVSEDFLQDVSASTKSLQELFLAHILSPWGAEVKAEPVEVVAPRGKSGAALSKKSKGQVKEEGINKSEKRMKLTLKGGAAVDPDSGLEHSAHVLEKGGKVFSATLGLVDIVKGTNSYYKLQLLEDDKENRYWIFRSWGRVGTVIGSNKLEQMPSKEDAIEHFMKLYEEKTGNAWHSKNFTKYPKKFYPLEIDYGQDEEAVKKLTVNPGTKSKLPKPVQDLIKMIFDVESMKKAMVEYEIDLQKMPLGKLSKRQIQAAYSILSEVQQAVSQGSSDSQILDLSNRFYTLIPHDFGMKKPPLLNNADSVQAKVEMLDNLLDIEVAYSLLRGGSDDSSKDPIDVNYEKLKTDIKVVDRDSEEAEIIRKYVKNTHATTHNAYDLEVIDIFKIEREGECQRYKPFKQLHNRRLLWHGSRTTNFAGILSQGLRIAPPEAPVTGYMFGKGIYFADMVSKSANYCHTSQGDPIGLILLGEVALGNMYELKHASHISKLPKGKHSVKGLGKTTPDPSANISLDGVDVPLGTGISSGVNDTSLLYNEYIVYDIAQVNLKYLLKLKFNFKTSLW

SMILES: COc1cc(F)ccc1-c1cc(Nc2cc(CN3CCN(C(=O)c4cc(Cc5n[nH]c(=O)c6ccccc56)ccc4F)CC3)ccn2)ncc1F
IC50 [1]: 0.043 µM
IC50 [2]: 0.017 µM

SMILES: O=C(c1cc(Cc2n[nH]c(=O)c3ccccc23)ccc1F)N1CCN(Cc2ccnc(Nc3cc(-c4ccc(F)c5ccoc45)ncn3)c2)CC1
IC50 [1]: 0.107 µM
IC50 [2]: 0.118 µM

SMILES: COc1cc(F)ccc1-c1cc(Nc2cc(CS(C)(=N)=O)ccn2)ncc1F (configuration not stated) [ENITOCICLIB]
Activity (MDA-MB-231 [7]): 6.48%
IC50 (HCT-116): 0.18 µM
Activity (MDA-MB-231 [8]): 29.1%
Activity (MDA-MB-231 [10]): 16.5%
Activity (MDA-MB-231 [11]): 7.66%
IC50 (MCF7): 0.05 µM
IC50 (HeLa): 0.2 µM
Activity (MDA-MB-231 [13]): 82.1%
half-life at 1 mg/ml [14]: 5.78 h
IC50 (MOLM-13): 0.08 µM
Activity (MDA-MB-231 [19]): 54.9%
remaining at 3 h [21]: 96%
remaining at 8 h, 1 mg/ml [22]: 101%
IC50 (MV4-11): 0.11 µM
remaining at 8 h, 1 mg/ml [25]: 97.4%
IC50 (MDA-MB-231 [4]): 0.27 µM
Activity (MDA-MB-231 [27]): 3.8%

Second part, led by results:

IC50 (HCT-116): 2.52 µM
IC50 [1]: 0.01 µM
IC50 [2]: 0.029 µM
IC50 (MCF7): > 50 µM
IC50 (HeLa): 1.21 µM
inhibition [3]: 73.9%
IC50 (MOLM-13): 4.05 µM
IC50 (MV4-11): 1.42 µM
IC50 (MDA-MB-231 [4]): > 50 µM
SMILES: COc1ccc(-c2cc(Nc3cc(CN4CCN(C(=O)c5cc(Cc6n[nH]c(=O)c7ccccc67)ccc5F)CC4)ccn3)ncn2)c(OC)c1

IC50 (HCT-116): 0.13 µM
IC50 [1]: 0.006 µM
IC50 [2]: 0.015 µM
IC50 (MCF7): 0.67 µM
IC50 (HeLa): 0.25 µM
half-life at 1 mg/ml [14]: 2.44 h
IC50 (MOLM-13): 0.69 µM
remaining at 3 h [21]: 94.6%
remaining at 8 h, 1 mg/ml [22]: 94.1%
IC50 (MV4-11): 3.83 µM
remaining at 8 h, 1 mg/ml [25]: 96.7%
IC50 (MDA-MB-231 [4]): 0.44 µM
SMILES: CCOc1cc(F)ccc1-c1cc(Nc2cc(CN3CCN(C(=O)c4cc(Cc5n[nH]c(=O)c6ccccc56)ccc4F)CC3)ccn2)ncn1
Activity (MDA-MB-231 [5]): 14.8%
Activity (MDA-MB-231 [6]): 45.2%
Activity (MDA-MB-231 [7]): 7.87%
Activity (MDA-MB-231 [8]): 31.1%
Activity (MDA-MB-231 [9]): 1.64%
Activity (MDA-MB-231 [10]): 36.4%
Activity (MDA-MB-231 [11]): 7.54%
Activity (MDA-MB-231 [12]): 25.3%
Activity (MDA-MB-231 [13]): 82.8%
Activity (MDA-MB-231 [15]): 94.9%
Activity (MDA-MB-231 [16]): 2.67%
Activity (MDA-MB-231 [17]): 76.1%
Activity (MDA-MB-231 [18]): 40%
Activity (MDA-MB-231 [19]): 34.8%
Activity (MDA-MB-231 [20]): 27.9%
Activity (MDA-MB-231 [23]): 33.1%
Activity (MDA-MB-231 [24]): 29.1%
Activity (MDA-MB-231 [26]): 8.01%
Activity (MDA-MB-231 [27]): 1.78%
Activity (MDA-MB-231 [28]): 1.07%
Activity (MDA-MB-231 [29]): 0.81%

IC50 [1]: 0.014 µM
IC50 [2]: 0.315 µM
SMILES: COc1ccc(OC)c(-c2cc(Nc3cc(CN4CCN(C(=O)c5cc(Cc6n[nH]c(=O)c7ccccc67)ccc5F)CC4)ccn3)ncn2)c1

IC50 [1]: 0.03 µM
IC50 [2]: 0.031 µM
SMILES: COc1ccc(-c2cc(Nc3cc(CN4CCN(C(=O)c5cc(Cc6n[nH]c(=O)c7ccccc67)ccc5F)CC4)ccn3)ncc2F)c(OC)c1
